Source: patent publication US9029127B2, “Method of degrading TBP using a photosynthetic bacterial strain” (priority 2003, dated 2015)

How the values were obtained:
Rp. palustris ΔpRpa1 = assay type: cell-based, Rhodopseudomonas palustris
Rp. palustris = assay: Growth of wild-type Rp. palustris in the presence of gentamycin; assay type: cell-based, Rhodopseudomonas palustris; conditions: gentamycin 50 μg·ml^−1
[1] = system: proteins extracted from Rp. palustris CGA009; assay type: biochemical, Rhodopseudomonas palustris
[2] = system: Rp. palustris CGA009 (ATCC BAA-98); assay: Effect of the cytochrome P450 inhibitor carbon monoxide on growth and TBP degradation of Rp. palustris; conditions: for effect of CO on growth: photosynthetic conditions, Hutner medium
Serratia odorifera sp. = assay: Effect of carbon monoxide on growth and TBP degradation of Serratia odorifera; assay type: cell-based; conditions: aerobiosis; for effect of CO on growth: Tsb medium

## gentamycin
Rp. palustris ΔpRpa1
  growth in the presence of the antibiotic: grows in the presence of this antibiotic
Rp. palustris
  resistance of the strain to the antibiotic: naturally resistant

## Cc1cc2c(cc1C)N(C[C@H](O)[C@H](O)[C@H](O)COP(=O)(O)OP(=O)(O)OC[C@H]1O[C@@H](n3cnc4c(N)ncnc43)[C@H](O)[C@@H]1O)c1[nH]c(=O)[nH]c(=O)c1N2 [FADH2]
[1]
  effect of cofactor on TBP degradation: does not significantly enhance

## NC(=O)C1=CN([C@@H]2O[C@H](COP(=O)(O)OP(=O)(O)OC[C@H]3O[C@@H](n4cnc5c(N)ncnc54)[C@H](O)[C@@H]3O)[C@@H](O)[C@H]2O)C=CC1 [NADH]
[1]
  effect of cofactor on TBP degradation: does not significantly enhance

## [C-]#[O+] [CO, carbon monoxide]
[2]; 2 mM TBP present
  effect of CO on growth: greatly reduced
[2]; TBP absent
  effect of CO on growth: does not affect the growth
[2]; residual TBP after 21 days of culture, 2 mM TBP
  effect of CO on TBP degradation: considerable decrease in TBP degradation
Serratia odorifera sp.; 2 mM TBP
  effect of CO on TBP degradation yield: does not significantly modify
Serratia odorifera sp.; 2 mM TBP present
  effect of CO on growth: nor does it affect the growth
Serratia odorifera sp.; TBP absent
  effect of CO on growth: does not affect the growth
